Assay results: patent US20050260126A1 (priority 2002, published 2005)

Experiments:
[1] = tested on: abnormal prion proteins in ScN2a cells with persistent infection of scrapie; assay: cells; assay type: cell-based, mouse; settings: for IC50: Mus musculus, ScN2a, 96 h, read-out: Inhibitory effects on producing abnormal prion protein IC50; for Inhibitory effects on producing abnormal prion proteins (in words): ScN2a cells
[2] = tested on: ScN2a cells; settings: for Concentration of inhibiting cell proliferation TC: mouse

CN(C)c1ccc(/C=C/c2nc3cc([N+](=O)[O-])ccc3o2)cc1 [BF-135, 2-(4-dimethylamino) styryl-5-nitrobenzoxazole]
IC50 [1]: 1 nM
Inhibitory effects on producing abnormal prion proteins (in words) [1]: highly inhibitory effects
TC and safety concentration margin (in words) [2]: higher TCs, therefore higher safety concentration margins
Concentration of inhibiting cell proliferation TC [2]: 100 µM

CN(C)c1ccc(/C=C/c2nccn2C)cc1 [BF-138, 2-[2-(4-dimethylamino-phenyl)ethenyl]-1-methylimidazole]
IC50 [1]: 100 nM
Concentration of inhibiting cell proliferation TC [2]: 100 µM

Nc1ccc(-c2nc3ccc(O)cc3s2)cc1 [BF-160, 2-(4-aminophenyl)-6-hydroxybenzothiazole]
IC50 [1]: 10 nM
Concentration of inhibiting cell proliferation TC [2]: 10 µM

CN(C)c1ccc2cc(-c3nc4cc(F)ccc4o3)cnc2c1 [BF-161, 5-fluoro-2-(7-dimethyl-aminoquinolin-3-yl)-benzoxazole]
IC50 [1]: 10 nM
Concentration of inhibiting cell proliferation TC [2]: 100 µM

CN(C)c1ncc(-c2ccc3ccccc3n2)o1 [BF-221, 2-(2-dimethylamino-oxazol-5-yl)quinoline]
IC50 [1]: 80 nM
Concentration of inhibiting cell proliferation TC [2]: >10 µM

C(=C\c1cncs1)/c1nc2ccccc2o1 [BF-234]
IC50 [1]: 40 nM
Concentration of inhibiting cell proliferation TC [2]: >10 µM

Nc1ccc(C(=O)Nc2ccc(-c3nc4cc(N)ccc4o3)cc2)cc1 [Compound N-220, 4-(5-aminobenzoxazol-2-yl)-N-(4-amino-benzoyl)aniline]
IC50 [1]: 1 nM
Inhibitory effects on producing abnormal prion proteins (in words) [1]: highly inhibitory effects
Concentration of inhibiting cell proliferation TC [2]: 10 µM

Nc1ccc(-c2nc3cc(Cc4ccc5oc(-c6ccc(N)cc6)nc5c4)ccc3o2)cc1 [Compound N-221]
IC50 [1]: 1 nM
Inhibitory effects on producing abnormal prion proteins (in words) [1]: highly inhibitory effects
Concentration of inhibiting cell proliferation TC [2]: >10 µM

Nc1ccc(-c2nc3ccc(N)cc3s2)cc1 [Compound N-224, 2-(4-aminophenyl)-6-aminobenzothiazole]
IC50 [1]: 1 nM
Inhibitory effects on producing abnormal prion proteins (in words) [1]: highly inhibitory effects
Concentration of inhibiting cell proliferation TC [2]: >10 µM

Nc1ccc(-c2nc3cc(N)ccc3o2)cc1 [Compound N-225, 2-(4-aminophenyl)-5-aminobenzoxazole]
IC50 [1]: 100 nM
Concentration of inhibiting cell proliferation TC [2]: >10 µM

Nc1ccc(-c2nc3ccc(N)cc3o2)cc1 [Compound N-226, 2-(4-aminophenyl)-6-aminobenzoxazole]
IC50 [1]: 100 nM
Concentration of inhibiting cell proliferation TC [2]: >10 µM

Nc1ccc(-c2nc3cc(N)ccc3s2)cc1 [Compound N-231, 2-(4-aminophenyl)-5-aminobenzothiazole]
IC50 [1]: 10 nM
Concentration of inhibiting cell proliferation TC [2]: 10 µM

Nc1ccc(-c2nc3cc(N)ccc3s2)c(O)c1 [Compound N-232, 2-(4-amino-2-hydroxy-phenyl)-5-amino-benzothiazole]
IC50 [1]: 1 nM
Inhibitory effects on producing abnormal prion proteins (in words) [1]: highly inhibitory effects
Concentration of inhibiting cell proliferation TC [2]: 10 µM

Nc1ccc(C(=O)Nc2ccc3nc(-c4cc(Cl)c(NC(=O)c5ccc(N)cc5)c(Cl)c4)[nH]c3c2Cl)cc1 [Compound N-233, 4-[6-(N′-(4-amino-benzoyl)amino)-7-chlorobenzimidazol-2-yl]-N-(4-aminobenzoyl)-2,6-dichloroaniline]
IC50 [1]: 100 nM
Concentration of inhibiting cell proliferation TC [2]: 10 µM

Nc1ccc(-c2nc3ccc(N)c(Cl)c3[nH]2)cc1 [Compound N-234, 2-(4-aminophenyl)-7-chloro-6-amino-benzimidazole]
IC50 [1]: 100 nM
Concentration of inhibiting cell proliferation TC [2]: >10 µM

Cc1cc(N)cc2nc(-c3ccc(N)c(Cl)c3)[nH]c12 [Compound N-240, 2-(4-amino-3-chloro-phenyl)-5-amino-7-methylbenzimidazole]
IC50 [1]: 100 nM
Concentration of inhibiting cell proliferation TC [2]: 10 µM

Nc1ccc(-c2nc3cc(Oc4ccc5[nH]c(-c6ccc(N)cc6)nc5c4)ccc3[nH]2)cc1 [Compound N-241]
IC50 [1]: 10 nM
Concentration of inhibiting cell proliferation TC [2]: 10 µM

Cc1cc2[nH]c(-c3ccc(N)cc3)nc2cc1N [Compound N-242, 2-(4-aminophenyl)-5-amino-6-methyl-benzimidazole]
IC50 [1]: 100 nM
Concentration of inhibiting cell proliferation TC [2]: 10 µM

Nc1ccc(C(=O)Nc2ccc(-c3nc4cc(N)ccc4[nH]3)cc2)cc1 [Compound N-243, 4-(5-aminobenzimidazol-2-yl)-N-(4-amino-benzoyl)aniline]
IC50 [1]: 1 nM
Inhibitory effects on producing abnormal prion proteins (in words) [1]: highly inhibitory effects
Concentration of inhibiting cell proliferation TC [2]: >10 µM

Nc1ccc(-c2nc3cc(Oc4ccc(Oc5ccc6[nH]c(-c7ccc(N)cc7)nc6c5)cc4)ccc3[nH]2)cc1 [Compound N-244]
IC50 [1]: 10 nM
Concentration of inhibiting cell proliferation TC [2]: >10 µM

Nc1ccc(-c2nc3ccc(N)cc3[nH]2)cc1 [Compound N-245, 2-(4-aminophenyl)-5-aminobenzimidazole]
IC50 [1]: 100 nM
Concentration of inhibiting cell proliferation TC [2]: 10 µM

Nc1ccc(C(=O)Nc2ccc(-c3nc4cc(Cl)c(NC(=O)c5ccc(N)cc5)cc4[nH]3)cc2)cc1 [Compound N-246, 4-[6-(N′-(4-amino-benzoyl)amino)-5-chlorobenzimidazol-2-yl]-N-(4-aminobenzoyl)aniline]
IC50 [1]: 1 nM
Inhibitory effects on producing abnormal prion proteins (in words) [1]: highly inhibitory effects
Concentration of inhibiting cell proliferation TC [2]: 10 µM

CN(C)c1ccc(/C=C/c2nc3ccc4ccccc4c3s2)cc1 [Compound N-283, 4-[2-(naphth[4,5-c]-thiazol-2-yl)ethenyl]-N,N-dimethylbenzenamine]
IC50 [1]: 500 nM
Concentration of inhibiting cell proliferation TC [2]: 50 µM

Nc1ccccc1/C=C/c1nc2ccccc2[nH]1 [Compound N-402, 2-[2-(2-aminophenyl)ethenyl]benzimidazole]
IC50 [1]: 50 nM
Concentration of inhibiting cell proliferation TC [2]: 50 µM

Cc1cccc(/C=C/c2nc3cc(C)ccc3s2)c1 [Compound N-439, 2-[2-(3-methylphenyl)-ethenyl]-5-methyl-benzothiazole]
IC50 [1]: 10 nM
Concentration of inhibiting cell proliferation TC [2]: 100 µM

C/C(=C\c1ccc(N)cc1)c1nc2ccccc2[nH]1 [Compound N-442, 4-[2-(2-benzimidazolyl)-2-methylethenyl]benzenamine]
IC50 [1]: 100 nM
Concentration of inhibiting cell proliferation TC [2]: 100 µM

Clc1ccc(/C=C/c2nc3ccccc3s2)c(Cl)c1 [Compound N-452, 2-[2-(2,4-dichloro-phenyl)ethenyl]-benzothiazole]
IC50 [1]: 100 nM
Concentration of inhibiting cell proliferation TC [2]: 100 µM

COc1ccc(/C=C/c2nc3ccccc3s2)cc1 [Compound N-455, 2-[2-(4-methoxyphenyl)-ethenyl]benzothiazole]
IC50 [1]: 10 nM
Concentration of inhibiting cell proliferation TC [2]: 100 µM

Nc1ccc(-c2cn3ccccc3n2)cc1 [Compound N-461, 2-(4-aminophenyl)-imidazo[1,2-a]pyridine]
IC50 [1]: 100 nM
Concentration of inhibiting cell proliferation TC [2]: >10 µM

Cc1ccn2cc(-c3ccccc3)nc2c1 [Compound N-463, 2-phenyl-7-methyl-imidazo[1,2-a]pyridine]
IC50 [1]: 100 nM
Concentration of inhibiting cell proliferation TC [2]: 100 µM

Clc1ccc2nc(-c3ccccc3)cn2c1 [Compound N-464, 2-phenyl-6-chloro-imidazo[1,2-a]pyridine]
IC50 [1]: 100 nM
Concentration of inhibiting cell proliferation TC [2]: 100 µM

Clc1ccc2nc(-c3cc(-c4ccccc4)no3)cn2c1 [Compound N-465, 2-(3-phenylisoxazol-5-yl)-6-chloroimidazo [1,2-a]pyridine]
IC50 [1]: 10 nM
Concentration of inhibiting cell proliferation TC [2]: 100 µM

Cc1ccn2c(Br)c(-c3ccccc3)nc2c1 [Compound N-467, 2-phenyl-3-bromo-7-methylimidazo[1,2-a]pyridine]
IC50 [1]: 1000 nM
Concentration of inhibiting cell proliferation TC [2]: 100 µM

Clc1ccc2nc(-c3ccccc3)c(Br)n2c1 [Compound N-468, 2-phenyl-3-bromo-6-chloroimidazo[1,2-a]pyridine]
IC50 [1]: 1000 nM
Concentration of inhibiting cell proliferation TC [2]: 100 µM

Ic1ccc2nc(-c3ccccc3)cn2c1 [Compound N-469, 2-phenyl-6-iodo-imidazo[1,2-a]pyridine]
IC50 [1]: 100 nM
Concentration of inhibiting cell proliferation TC [2]: ≧100 μM

Clc1ccc2nc(-c3cccs3)cn2c1 [Compound N-471, 2-(2-thienyl)-6-chloro imidazo[1,2-a]pyridine]
IC50 [1]: 1000 nM
Concentration of inhibiting cell proliferation TC [2]: ≧100 μM

Clc1ccc2nc(-c3ccc(Br)s3)cn2c1 [Compound N-472, 2-(5-bromo-2-thienyl)-6-chloroimidazo[1,2-a]pyridine]
IC50 [1]: 10 nM
Concentration of inhibiting cell proliferation TC [2]: 100 µM

Cc1ccc2nc(-c3sc(-c4ccccc4)nc3C)cn2c1 [Compound N-473, 2-(2-phenyl-4-methylthiazol-5-yl)-6-methyl-imidazo[1,2-a]pyridine]
IC50 [1]: 1000 nM
Concentration of inhibiting cell proliferation TC [2]: 100 µM

Nc1cccc(-c2cn3cc(Cl)ccc3n2)c1 [Compound N-475, 2-(3-aminophenyl)-6-chloroimidazo[1,2-a]pyridine]
IC50 [1]: 100 nM
Concentration of inhibiting cell proliferation TC [2]: 100 µM

Cc1ccc2nc(-c3ccc(NC(=O)c4ccc(Cl)cc4Cl)cc3)sc2c1 [HT-040, 4-(6-methylbenzothiazol-2-yl)-N-(2,4-dichlorobenzoyl)aniline]
IC50 [1]: 10 nM
Concentration of inhibiting cell proliferation TC [2]: >10 µM

Cc1ccc2nc(-c3ccc(NC(=O)c4ccc(Cl)cc4)cc3)sc2c1 [HT-041, 4-(6-methylbenzothiazol-2-yl)-N-(4-chloro-benzoyl)aniline]
IC50 [1]: 10 nM
Concentration of inhibiting cell proliferation TC [2]: >10 µM

Cc1ccc2nc(-c3ccc(NC(=O)c4cccs4)cc3)sc2c1 [HT-042, 4-(6-methylbenzothiazol-2-yl)-N-(thio-phen-2-carbonyl)aniline]
IC50 [1]: 10 nM
Concentration of inhibiting cell proliferation TC [2]: >100 µM
